Patent US20050113337A1, “Enhancement of oral bioavailability of non-emulsified formulations of prodrug esters with lecithin” (TAP Pharmaceutical Products, Inc., priority 2001, published 2005)

Tests used:
[1] = test system: Carboxylesterase from porcine liver; assay: Esterase degradation of cefditoren pivoxil; assay type: in vitro ADME; conditions: 20 minutes, 37° C.; for amount of cefditoren pivoxil remaining: esterase; for % cefditoren pivoxil remaining: simulated intestinal fluid
Description: First, a test was performed to determine whether cefditoren pivoxil is degraded by esterase. 25 mg of cefditoren pivoxil (available from Meiji Saika Kaisha Ltd of Japan) was dissolved in 100 ml of an aqueous solution containing 10% dimethylsulfoxide and 0.1 N. hydrochloric acid to make up an 0.25 mg/ml solution. Carboxylesterase (also referred to as esterase herein) from porcine liver (15 mg protein/ml, 250 units/mg protein, available from Sigma-Aldrich) was dissolved in simulated intestinal fluid (SIF having no added pancreatin, available from Sigma-Aldrich) to make up a solution having 0.5 units/ml.
2 ml of the cefditoren pivoxil solution was then mixed with 2 ml of the esterase solution and 2 ml of simulated intestinal fluid. This mixture was allowed to react for 20 minutes at 37° C. and then the reaction was quenched with 1.0 ml of acetonitrile. This procedure was repeated with esterase at two other concentrations.
The experimental procedure was as described above, except that the cefditoren pivoxil was dissolved in 3% lecithin (LECI-PC 35 P, available from Traco Labs of IL).
The amount of cefditoren pivoxil remaining in each of the samples was determined by HPLC, and compared to the amount of cefditoren pivoxil of a control solution. The control solution was 2.0 ml cefditoren pivoxil, 2.0 ml of 10% modified lecithin solution and 2.0 ml simulated intestinal fluid incubated and then quenched as above.

[2] = Solubility of cefditoren pivoxil in lecithin dispersions; assay type: physicochemical
Description: The solubility of cefditoren pivoxil in various lecithins was determined as follows. Three types of lecithin were tested: lecithin (LECI-PC 35P available from Traco Labs, IL), modified lecithin (containing 70% maltodextrin and 30% phosphatidyl choline; ALCOLEC SM 100 available from American Lecithin Inc. of CT) and hydroxylated lecithin (CENTROLENE A, available from Central Soya, IN). 5%, 10% and 15% suspensions of each type of lecithin were made up in distilled deionized water to form the test dispersions. Cefditoren pivoxil (available from Meiji Saika Kaisha Ltd of Japan) was added to each test dispersion. Each sample was vortexed for one minute, sonicated for two minutes, vortexed again for one minute and then centrifuged at 2000 rpm for ten minutes at room temperature. The resulting supernatant fraction was collected, filtered through a 0.45 μm filter and analyzed by HPLC.

## cefditoren pivoxil
[1]; cefditoren pivoxil dissolved in 3% lecithin (LECI-PC 35 P)
  amount of cefditoren pivoxil remaining: 57.4%
[1]; control (non-lecithin containing) solution
  amount of cefditoren pivoxil remaining: 7%
[1]; esterase concentration 0.05 units/ml
  % cefditoren pivoxil remaining: 81.9%
[1]; esterase concentration 0.5 units/ml
  % cefditoren pivoxil remaining: 4.5%
[1]; esterase concentration 5 units/ml
  % cefditoren pivoxil remaining: 0.3%
[2]; in aqueous lecithin solution (LECI-PC 35P)
  solubility: 678.5 µg/mL
[2]; in hydroxylated lecithin (CENTROLENE A)
  solubility: 715.0 µg/mL
[2]; in modified lecithin (ALCOLEC SM 100)
  solubility: 868.1 µg/mL
[2]; in water alone
  solubility: 31.8 µg/mL
